Drawing on ChEMBL document CHEMBL2074462, “MRP4: A previously unidentified factor in resistance to nucleoside-based antiviral drugs” (Nat Med, 1999), this text covers Activity for two compounds.

The target in the series is T1, ATP-binding cassette sub-family C member 4 (Homo sapiens, UniProt O15439).
T1 sequence (O15439 whole entry): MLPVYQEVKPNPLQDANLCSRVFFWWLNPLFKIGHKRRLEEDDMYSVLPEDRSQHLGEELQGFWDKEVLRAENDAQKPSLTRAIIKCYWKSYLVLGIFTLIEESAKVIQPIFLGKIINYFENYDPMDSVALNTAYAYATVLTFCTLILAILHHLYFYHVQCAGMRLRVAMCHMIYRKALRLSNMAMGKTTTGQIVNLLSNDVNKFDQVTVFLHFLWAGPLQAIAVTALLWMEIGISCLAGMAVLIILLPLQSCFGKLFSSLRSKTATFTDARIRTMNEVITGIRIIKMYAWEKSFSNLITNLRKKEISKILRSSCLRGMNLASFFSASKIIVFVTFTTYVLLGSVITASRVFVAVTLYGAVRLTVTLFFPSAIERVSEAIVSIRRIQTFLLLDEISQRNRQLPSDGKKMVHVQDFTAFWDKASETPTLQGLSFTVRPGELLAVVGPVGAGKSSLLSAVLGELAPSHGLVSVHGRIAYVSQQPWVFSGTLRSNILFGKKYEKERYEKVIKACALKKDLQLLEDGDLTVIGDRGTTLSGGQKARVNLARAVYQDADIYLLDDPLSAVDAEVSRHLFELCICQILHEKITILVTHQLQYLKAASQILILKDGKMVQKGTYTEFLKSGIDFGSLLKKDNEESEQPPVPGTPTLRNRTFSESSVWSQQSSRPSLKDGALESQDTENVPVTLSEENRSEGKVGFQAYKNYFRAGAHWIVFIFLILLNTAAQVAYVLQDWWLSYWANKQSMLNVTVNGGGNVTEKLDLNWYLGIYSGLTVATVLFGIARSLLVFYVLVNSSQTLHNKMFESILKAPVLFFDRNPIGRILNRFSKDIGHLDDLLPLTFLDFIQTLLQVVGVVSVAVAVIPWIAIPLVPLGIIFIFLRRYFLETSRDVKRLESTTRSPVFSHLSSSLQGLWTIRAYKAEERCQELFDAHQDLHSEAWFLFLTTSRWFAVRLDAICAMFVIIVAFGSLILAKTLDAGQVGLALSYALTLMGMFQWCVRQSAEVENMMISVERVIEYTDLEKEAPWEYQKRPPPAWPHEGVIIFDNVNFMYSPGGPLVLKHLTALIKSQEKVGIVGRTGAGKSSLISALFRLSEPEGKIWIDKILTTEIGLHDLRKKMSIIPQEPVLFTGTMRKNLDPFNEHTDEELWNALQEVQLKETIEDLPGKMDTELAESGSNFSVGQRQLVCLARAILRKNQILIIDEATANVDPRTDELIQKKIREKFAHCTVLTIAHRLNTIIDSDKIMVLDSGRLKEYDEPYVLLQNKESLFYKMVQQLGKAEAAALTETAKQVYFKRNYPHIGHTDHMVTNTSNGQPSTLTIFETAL
The series is described as follows: TP_TRANSPORTER: efflux in CEM-r1 cells. It counts as functional, cell-based.

`Nc1ncnc2c1ncn2CCOCP(=O)(O)O` [ADEFOVIR]: the Activity entry is “substrate [+]”.

On to `Cc1cn([C@H]2C[C@H](N=[N+]=[N-])[C@@H](COP(=O)(O)O)O2)c(=O)[nH]c1=O` [AZIDOTHYMIDINE MONOPHOSPHATE], for which the Activity result is “substrate [+]”.
